# From US20190127413A1, “Compositions and Methods for Non-Toxic Delivery of Antiprogestins” (Repros Therapeutics Inc., priority 2010, published 2019)
# “Also recorded” adds a separate entry of the source.
# What was measured:
# [1] = Clinical trials of daily oral CDB-4124 (Proellex) capsules: liver toxicity, liver enzymes; type: in vivo, human
# Experimental: The maximum concentrations of CDB-4124 and its mono-demethylated metabolite (CDB-4453) for the 12.5 mg dose were 25% of the 50 mg dose. All liver toxicities resolved in those women that returned for safety follow-ups, including those subjects that developed liver-associated serious adverse effects (SAEs).
# To date, over 600 patients, including women with confirmed cases of endometriosis or uterine fibroids, have participated in double blind and open label clinical trials in which patients were administered daily oral capsules containing doses of 12.5 mg, 25 mg or 50 mg CDB-4124 (Proellex) for over one month. Of these patients, about 500 received Proellex and about 130 received a placebo. Of the patients receiving Proellex, about 190 received a dose of 50 mg CDB-4124 per day, about 260 received a dose of 25 mg CDB-4124 per day and about 55 received a dose of 12.5 mg per day.
# Liver enzymes were frequently monitored in participating subjects. The liver enzyme level at which the clinical trials would be discontinued was set at an increase in liver aminotransferases greater than, or equal to three times the Upper Limit of Normal (≥3×ULN).
# Of the nine subjects with a confirmed increase in liver enzymes ≥3×ULN, seven were severe enough elevations to be reported to the FDA as SAEs. One of these seven subjects had been receiving a dose of 25 mg CDB-4124 per day; the remaining six subjects had been receiving a dose of 50 mg CDB-4124 per day. Liver enzymes ≥3×ULN persisted in five of the nine subjects with a confirmed increase in liver enzymes ≥3×ULN. These five subjects had previously been dosed with the 50 mg dose. One of these subjects is receiving oral medication for treatment of their liver condition. Clinical trials involving CDB-4124 at all doses were voluntarily suspended as a result of these SAEs and were subsequently placed on clinical hold by the United States Food and Drug Administration for safety reasons.
# [2] = Cmax after vaginal administration extrapolated from beagles to humans; type: in vivo; conditions: for predicted Cmax for vaginal administration as percentage of the same dose administered orally: humans
# Experimental: The maximum circulating concentrations (Cmax) of CDB-4124 obtained following vaginal administration to beagles were extrapolated to humans for the 12.5 mg, 25 mg and 50 mg doses actually administered during the Phase III clinical studies.
# [3] = Oral versus vaginal pharmacokinetics in beagles; type: in vivo; conditions: 25 mg; for metabolism after peak plasma concentration: oral, micronized powder; for metabolism / peak plasma concentration (Cmax): vaginal suppository
# Experimental: Beagles were administered 25 mg of CDB-4124 or CDB-4453 (the monodemethylated metabolite of CDB-4124) formulated as either a micronized powder or a vaginal suppository. […] Moreover, systemic exposure of the drug is much lower when administered locally (compare AUC for CDB-4124 and CDB-4453 when administered vaginally vs. orally).
# [4] = Pharmacokinetic studies on participating clinical trial subjects, oral CDB-4124; type: in vivo, human; conditions: for maximum concentration for the 12.5 mg dose as percentage of the 50 mg dose: oral CDB-4124, parent and mono-demethylated metabolite
# Experimental: (§1) Pharmacokinetic studies performed on participating subjects detected a high Cmax and a Tmax at 1-2 hours following administration. […] Metabolism of CDB-4124 by the liver provides the opportunity for liver damage and greatly reduces the concentration of the antiprogestin before it reaches the systemic circulation. Thus, alternative routes of administration of antiprogestins that avoid first pass metabolism such as, without limitation, intravenous, intramuscular, and sublingual, should allow antiprogestins to be absorbed directly into the systemic circulation and thereby provide a method for treating progestone-dependent conditions while avoiding liver toxicity. Administration routes which avoid first pass metabolism may also require less drug per dose to achieve the same therapeutic benefit relative to oral administration.
# [5] = system: progesterone-induced endometrial proliferation; assay: Anti-Clauberg study, subcutaneous versus oral; type: in vivo, rabbits
# From the text: To determine whether the low circulating levels of CDB-4124 when administered locally could have any impact predictive of efficacy, an anti-Clauberg study was run in which immature estradiol-primed rabbits were coadministered progesterone and various doses of CDB-4124 by either subcutaneous or oral administration. At least 3 different highly trained individuals evaluated the rabbit uterus for glandular growth, for complexity and overall progesterone-induced “development”. The inhibition (by percentage) of progesterone-induced endometrial proliferation at each dose was assayed. […] However, maximal inhibition required a 8-fold increase in dosage when administered orally (i.e. 8 mg/kg). Importantly 8 mg/kg corresponds closely to the 50 mg/day dose of CDB-4124 administered to the female subjects described in Example 4.
# [6] = system: progesterone-induced endometrial proliferation; assay: Anti-Clauberg study, vaginal versus oral (McPhail index); type: in vivo, rabbits
# Experimental: Another anti-Clauberg study was run in which immature estradiol-primed rabbits were administered progesterone alone (vehicle control) or were co-administered progesterone and three doses of CDB-4124 by either vaginal or oral administration. The inhibition of progesterone-induced endometrial proliferation at each dose was assayed. FIG. 3 illustrates the decrease in the McPhail index following increasing doses of CDB-4124 administered by either route. Maximal inhibition (i.e. a decrease in the McPhail index to 1.5) occurred at 0.2 mg/kg CDB-4124 when administered vaginally, compared to 0.8 mg/kg when administered orally.
# [7] = system: primary cultures of human and animal hepatocytes; assay: Metabolism in primary cultures of hepatocytes; type: in vitro ADME; conditions: primary hepatocyte cultures
# Experimental: as §1
# glucocorticoid receptor = target: T1, glucocorticoid receptor (Homo sapiens, UniProt P04150); conditions: cited from earlier work
# T1 sequence (P04150 1-777): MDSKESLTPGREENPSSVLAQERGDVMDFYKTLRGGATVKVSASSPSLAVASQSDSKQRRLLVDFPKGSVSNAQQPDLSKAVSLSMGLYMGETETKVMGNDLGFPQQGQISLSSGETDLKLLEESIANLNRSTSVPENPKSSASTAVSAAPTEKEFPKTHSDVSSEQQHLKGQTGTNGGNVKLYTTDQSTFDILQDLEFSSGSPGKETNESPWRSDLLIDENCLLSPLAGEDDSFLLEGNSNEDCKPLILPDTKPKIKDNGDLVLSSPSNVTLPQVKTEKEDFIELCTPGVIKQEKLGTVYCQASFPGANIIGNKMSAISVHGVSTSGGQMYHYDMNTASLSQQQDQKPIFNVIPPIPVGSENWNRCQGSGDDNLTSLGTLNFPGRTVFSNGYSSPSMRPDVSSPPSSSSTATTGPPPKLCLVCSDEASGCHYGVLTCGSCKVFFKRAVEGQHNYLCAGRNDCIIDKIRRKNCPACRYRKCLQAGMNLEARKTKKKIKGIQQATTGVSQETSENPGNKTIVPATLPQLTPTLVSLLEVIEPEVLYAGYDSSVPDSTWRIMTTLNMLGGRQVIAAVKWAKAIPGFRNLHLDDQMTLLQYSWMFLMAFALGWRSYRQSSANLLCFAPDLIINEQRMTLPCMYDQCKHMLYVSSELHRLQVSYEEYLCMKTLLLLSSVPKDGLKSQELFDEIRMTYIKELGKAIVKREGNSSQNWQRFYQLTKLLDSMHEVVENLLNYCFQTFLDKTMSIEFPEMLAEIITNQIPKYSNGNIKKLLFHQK
smiles,measurement,setting,value
"COCC(=O)[C@@]1(OC(C)=O)CC[C@H]2[C@@H]3CCC4=CC(=O)CCC4=C3[C@@H](c3ccc(N(C)C)cc3)C[C@@]21C [CDB-4124, 21-methoxy-17α-acetoxy-11β-(4 N, N-dimethylaminophenyl)-19-norpregna-4,9-diene-3,20-dione]",subjects with liver enzyme elevation reported as SAE,[1]; 25 mg CDB-4124 per day,One
same,subjects with liver enzyme elevation reported as SAE,[1]; 50 mg CDB-4124 per day,six
same,subjects in whom liver enzymes ≥3×ULN persisted,[1]; 50 mg dose,five
same,subjects with elevations severe enough to be reported to the FDA as SAEs,[1]; all doses,seven
same,subjects with increase in liver enzymes ≥3×ULN confirmed by repeat test in 48 hours,[1]; all doses,nine
same,subjects with increase in liver enzymes ≥3×ULN,"[1]; all doses, first test",thirteen
same,adverse liver toxicity signals,"[1]; oral, 12.5 mg, versus placebo",no adverse liver toxicity signals different from placebo
same,frequency and intensity of liver toxicity effects relative to 50 mg/day,"[1]; oral, 25 mg/day",significantly lower in frequency and intensity
same,women exhibiting severe liver toxicity,"[1]; oral, 50 mg/day, Phase III clinical studies",3-4%
same,liver toxicity on chronic daily administration,"[1]; therapeutic oral dosages, patients",exhibit liver toxicity
same,predicted Cmax for vaginal administration as percentage of the same dose administered orally,[2]; 12.5 mg dose,approximately 6.5%
same,predicted Cmax for vaginal administration as percentage of the same dose administered orally,[2]; 50 mg dose,approximately 2%
same,Cmax with 12.5 mg vaginal dose as percentage of that with 50 mg oral dose,"[2]; in vivo, po",2%
same,"systemic exposure (AUC), local (vaginal) versus oral",[3],much lower
same,metabolism after peak plasma concentration,[3],rapidly metabolized
same,metabolism,[3],metabolized slowly
same,peak plasma concentration (Cmax),[3],relatively low
same,monodemethylated metabolite detected (first pass metabolism),[4]; after oral ingestion of CDB-4124,Large quantities; also recorded: Large amounts
same,Cmax,[4]; following oral administration,high
same,Tmax,"[4]; human, in vivo, following oral administration",1 to 2 h
same,maximum concentration for the 12.5 mg dose as percentage of the 50 mg dose,[4],25%
same,dose at which maximal inhibition of progesterone-induced endometrial proliferation was observed,[5]; oral,8 mg/kg
same,"increase in dosage required for maximal inhibition, oral versus subcutaneous","[5]; rabbit, in vivo",8 fold
same,dose at which maximal inhibition of progesterone-induced endometrial proliferation was observed,[5]; subcutaneous,less than 1 mg/kg
same,dose at which maximal inhibition occurred,[6]; oral,0.8 mg/kg
same,dose at which maximal inhibition occurred,[6]; vaginal,0.2 mg/kg
same,McPhail index at maximal inhibition,[6]; vaginal 0.2 mg/kg or oral 0.8 mg/kg,1.5
same,production of the mono-demethylated metabolite,[7],rapidly produce the mono-demethylated metabolite
"CNc1ccc([C@H]2C[C@@]3(C)[C@@H](CC[C@]3(OC(C)=O)C(=O)COC)[C@@H]3CCC4=CC(=O)CCC4=C32)cc1 [CDB-4453, 21-methoxy-17α-acetoxy-11β-(4-N-methylaminophenyl)-19-norpregna-4,9-diene-3,20-dione]","systemic exposure (AUC), local (vaginal) versus oral",[3],much lower
same,metabolism after peak plasma concentration,[3],rapidly metabolized
same,metabolism,[3],metabolized slowly
same,peak plasma concentration (Cmax),[3],relatively low
same,maximum concentration for the 12.5 mg dose as percentage of the 50 mg dose,[4],25%
same,anti-glucocorticoid activity relative to parent CDB-4124,glucocorticoid receptor,even lower anti-glucocorticoid activity than its parent
